What follows are compounds tested against T1, human recombinant PDE9 enzyme (Homo sapiens, UniProt O76083) (assay: Phosphodiesterase 9 (PDE9) inhibitory activity, Scintillation Proximity (SPA) assay). Conditions: human recombinant PDE9 from SF-9 cells; 50 nM [3H]cGMP; room temperature, 30 min; Examples 3-114; read-out: G5678A (U): IC50.
T1 construct: made in house; host or cells: SF-9 insect cells
T1 sequence (O76083 whole entry): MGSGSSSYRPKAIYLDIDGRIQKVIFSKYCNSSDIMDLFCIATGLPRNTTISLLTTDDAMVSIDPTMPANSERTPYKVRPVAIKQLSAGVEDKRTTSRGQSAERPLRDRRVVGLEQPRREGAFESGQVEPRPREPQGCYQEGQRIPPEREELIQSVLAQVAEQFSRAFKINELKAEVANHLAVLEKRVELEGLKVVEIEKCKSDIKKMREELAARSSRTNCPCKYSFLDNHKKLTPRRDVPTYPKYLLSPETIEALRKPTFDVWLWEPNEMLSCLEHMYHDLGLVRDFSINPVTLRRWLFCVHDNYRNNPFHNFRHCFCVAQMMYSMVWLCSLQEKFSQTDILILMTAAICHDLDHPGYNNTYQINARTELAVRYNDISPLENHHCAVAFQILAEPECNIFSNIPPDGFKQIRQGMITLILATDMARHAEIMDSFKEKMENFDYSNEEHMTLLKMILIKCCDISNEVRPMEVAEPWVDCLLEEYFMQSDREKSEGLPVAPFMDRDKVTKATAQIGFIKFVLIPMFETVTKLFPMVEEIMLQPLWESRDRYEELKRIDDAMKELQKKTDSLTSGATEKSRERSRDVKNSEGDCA
Type: biochemical
In short: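 Recombinant human PDE9 from SF-9 cell lysate supernatant, diluted so that ≤20% of [3H]cGMP substrate was hydrolysed to 5′GMP. Reaction started with enzyme and run 30 min at room temperature with 2% DMSO final. SPA beads were counted after >300 min; background came from a high concentration of a PDE inhibitor.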
With `CC[C@@H]1CN(Cc2ccc(C#N)cc2)C[C@H]1c1nc2c(cnn2C2CCOCC2)c(=O)[nH]1` [Example 114, 4-({(3S,4S)-3-ethyl-4-[4-oxo-1-(tetrahydro-2H-pyran-4-yl)-45-dihydro-1H-pyrazolo[3,4-d]pyrimidin-6-yl]pyrrolidin-1-yl}methyl)benzonitrile] the IC50 was 2.31 nM. `CC(C)n1ncc2c(=O)[nH]c([C@@H]3CN(Cc4ccnc5cccnc45)C[C@H]3C)nc21` [Example 65, 1-isopropyl-6-[(3S,4S)-4-methyl-1-(1,5-naphthyridin-4-ylmethyl)pyrrolidin-3-yl]-1,5-dihydro-4H-pyrazolo[3,4-d]pyrimidin-4-one] was tested, and the IC50 was 17.1 nM. For `C[C@@H]1CN(Cc2cc(F)cc(F)c2)C[C@H]1c1nc2c(cnn2C2CCOCC2)c(=O)[nH]1` [Example 90, 6-[(3S,4S)-1-(3,5-difluorobenzyl)-4-methylpyrrolidin-3-yl]-1-(tetrahydro-2H-pyran-4-yl)-1,5-dihydro-4H-pyrazolo[3,4-d]pyrimidin-4-one], the IC50 was 1.41 nM. Work on `CCn1ncc2c(=O)[nH]c([C@@H]3CN(Cc4ccccc4)C[C@H]3C)nc21` (racemic) [Example 58, 6-[(3,4-trans)-1-benzyl-4-methylpyrrolidin-3-yl]-1-ethyl-1,5-dihydro-4H-pyrazolo[3,4-d]pyrimidin-4-one] yielded an IC50 of 334 nM. In the case of `C[C@@H]1CN(Cc2ccccc2)C[C@H]1c1nc2c(cnn2C2CCC2)c(=O)[nH]1` (racemic) [Example 72, 6-[(3,4-trans)-1-benzyl-4-methylpyrrolidin-3-yl]-1-cyclobutyl-1,5-dihydro-4H-pyrazolo[3,4-d]pyrimidin-4-one], the IC50 is reported as 40.1 nM. `O=c1[nH]c(C2CCN(Cc3ccccc3)C2)nc2c1cnn2C1CCCC1` (stereo not shown) [Example 42, 6-(1-benzylpyrrolidin-3-yl)-1-cyclopentyl-1,5-dihydro-4H-pyrazolo[3,4-d]pyrimidin-4-one] was tested, and the IC50 was 268 nM. With `CC(C)n1ncc2c(=O)[nH]c([C@@H]3CN(Cc4cnc5ccccc5c4)C[C@H]3C)nc21` (racemic) [Example 34, 1-isopropyl-6-[(3,4-trans)-4-methyl-1-(quinolin-3-ylmethyl)pyrrolidin-3-yl]-1,5-dihydro-4H-pyrazolo[3,4-d]pyrimidin-4-one] the IC50 was 4.33 nM. For `Cc1cnc(CN2C[C@@H](c3nc4c(cnn4C4CCCC4)c(=O)[nH]3)[C@H](C3CC3)C2)cn1` (racemic) [Example 55, 1-cyclopentyl-6-{(3,4-trans)-4-cyclopropyl-1-[(5-methylpyrazin-2-yl)methyl]pyrrolidin-3-yl}-1,5-dihydro-4H-pyrazolo[3,4-d]pyrimidin-4-one], the IC50 was 6.55 nM. In the case of `O=c1[nH]c([C@@H]2CN(Cc3ccccc3)C[C@H]2C2CC2)nc2c1cnn2C1CCCC1` (racemic) [Example 29, 6-[(3,4-trans)-1-benzyl-4-cyclopropylpyrrolidin-3-yl]-1-cyclopentyl-1,5-dihydro-4H-pyrazolo[3,4-d]pyrimidin-4-one], the IC50 is reported as 2.17 nM. `C[C@@H]1CN(Cc2cccc(C(F)(F)F)c2)C[C@H]1c1nc2c(cnn2C2CCCC2)c(=O)[nH]1` (racemic) [Example 8, 1-cyclopentyl-6-{(3,4-trans)-4-methyl-1-[3-(trifluoromethyl)benzyl]pyrrolidin-3-yl}-1,5-dihydro-4H-pyrazolo[3,4-d]pyrimidin-4-one] gave an IC50 of 11.2 nM. `CN1C[C@@H](c2nc3c(cnn3C3CCCC3)c(=O)[nH]2)[C@H](C2CC2)C1` (racemic) [Example 57, 1-cyclopentyl-6-[(3,4-trans)-4-cyclopropyl-1-methylpyrrolidin-3-yl]-1,5-dihydro-4H-pyrazolo[3,4-d]pyrimidin-4-one] gave an IC50 of 122 nM.

Same assay, conditions: human recombinant PDE9 from SF-9 cells; 50 nM [3H]cGMP; room temperature, 30 min; additional compounds Ex. 115-228; read-out: G5678A (U):IC50
With `C[C@@H]1CN(Cc2ccc3ccccc3c2)C[C@H]1c1nc2c(cnn2C2CCCC2)c(=O)[nH]1` (racemic) [Example 137, 1-cyclopentyl-6-[(3,4-trans)-4-methyl-1-(2-naphthylmethyl)pyrrolidin-3-yl]-1,5-dihydro-4H-pyrazolo[3,4-d]pyrimidin-4-one] the IC50 was 54.5 nM. Work on `C[C@@H]1CN(Cc2nc3ccccc3n2C)C[C@H]1c1nc2c(cnn2C2CCCC2)c(=O)[nH]1` (racemic) [Example 199, 1-cyclopentyl-6-{(3,4-trans)-4-methyl-1-[(1-methyl-1H-benzimidazol-2-yl)methyl]pyrrolidin-3-yl}-1,5-dihydro-4H-pyrazolo[3,4-d]pyrimidin-4-one] yielded an IC50 of 35.3 nM. Work on `C[C@@H]1CN(Cc2ccnc(C(C)(C)O)c2)C[C@H]1c1nc2c(cnn2C2CCCC2)c(=O)[nH]1` (racemic) [Example 189, 1-cyclopentyl-6-[(3,4-trans)-1-{[2-(1-hydroxy-1-methylethyl)pyridin-4-yl]methyl}-4-methylpyrrolidin-3-yl]-1,5-dihydro-4H-pyrazolo[3,4-d]pyrimidin-4-one] yielded an IC50 of 23.7 nM. `CCc1ncc(CN2C[C@@H](C)[C@H](c3nc4c(cnn4C4CCCC4)c(=O)[nH]3)C2)cn1` (racemic) [Example 168, 1-cyclopentyl-6-{(3,4-trans)-1-[(2-ethylpyrimidin-5-yl)methyl]-4-methylpyrrolidin-3-yl}-1,5-dihydro-4H-pyrazolo[3,4-d]pyrimidin-4-one] was tested, and the IC50 was 30.7 nM. In the case of `Cc1cc(C)c(CN2C[C@@H](C)[C@H](c3nc4c(cnn4C4CCCC4)c(=O)[nH]3)C2)c(C)c1` (racemic) [Example 191, 1-cyclopentyl-6-[(3,4-trans)-1-(mesitylmethyl)-4-methylpyrrolidin-3-yl]-1,5-dihydro-4H-pyrazolo[3,4-d]pyrimidin-4-one], the IC50 is reported as 198 nM. Work on `C[C@@H]1CN(Cc2ccc(F)c(F)c2)C[C@H]1c1nc2c(cnn2C2CCCC2)c(=O)[nH]1` (racemic) [Example 161, 1-cyclopentyl-6-[(3,4-trans)-1-(3,4-difluorobenzyl)-4-methylpyrrolidin-3-yl]-1,5-dihydro-4H-pyrazolo[3,4-d]pyrimidin-4-one] yielded an IC50 of 40.4 nM. Work on `Cc1cnc(CN2C[C@@H](C)[C@H](c3nc4c(cnn4C4CCCC4)c(=O)[nH]3)C2)cn1` (racemic) [Example 177, 1-cyclopentyl-6-{(3,4-trans)-4-methyl-1-[(5-methylpyrazin-2-yl)methyl]pyrrolidin-3-yl)-1,5-dihydro-4H-pyrazolo[3,4-d]pyrimidin-4-one] yielded an IC50 of 42.2 nM. In the case of `CCOc1ccccc1CN1C[C@@H](C)[C@H](c2nc3c(cnn3C3CCCC3)c(=O)[nH]2)C1` (racemic) [Example 139, 1-cyclopentyl-6-[(3,4-trans)-1-(2-ethoxybenzyl)-4-methylpyrrolidin-3-yl]-1,5-dihydro-4H-pyrazolo[3,4-d]pyrimidin-4-one], the IC50 is reported as 97.5 nM. `Cc1ccc(CN2C[C@@H](C)[C@H](c3nc4c(cnn4C4CCCC4)c(=O)[nH]3)C2)cc1F` (racemic) [Example 130, 1-cyclopentyl-6-[(3,4-trans)-1-(3-fluoro-4-methylbenzyl)-4-methylpyrrolidin-3-yl]-1,5-dihydro-4H-pyrazolo[3,4-d]pyrimidin-4-one] showed an IC50 of 60 nM. Work on `COc1ccc(CN2C[C@@H](C)[C@H](c3nc4c(cnn4C4CCCC4)c(=O)[nH]3)C2)cc1OC` (racemic) [Example 176, 1-cyclopentyl-6-[(3,4-trans)-1-(3,4-dimethoxybenzyl)-4-methylpyrrolidin-3-yl]-1,5-dihydro-4H-pyrazolo[3,4-d]pyrimidin-4-one] yielded an IC50 of 27.1 nM. Compound `C[C@@H]1CN(Cc2ccc(OC(F)F)cc2)C[C@H]1c1nc2c(cnn2C2CCCC2)c(=O)[nH]1` (racemic) [Example 159, 1-cyclopentyl-6-{(3,4-trans)-1-[4-(difluoromethoxy)benzyl]-4-methylpyrrolidin-3-yl}-1,5-dihydro-4H-pyrazolo[3,4-d]pyrimidin-4-one] has an IC50 of 59.9 nM. For `C[C@@H]1CN(Cc2cnn3c2CCCCC3)C[C@H]1c1nc2c(cnn2C2CCCC2)c(=O)[nH]1` (racemic) [Example 214, 1-cyclopentyl-6-[(3,4-trans)-4-methyl-1-(5,6,7,8-tetrahydro-4H-pyrazolo[1,5-a]azepin-3-ylmethyl)pyrrolidin-3-yl]-1,5-dihydro-4H-pyrazolo[3,4-d]pyrimidin-4-one], the IC50 was 15.7 nM. With `C[C@@H]1CN(Cc2cc(F)ccc2F)C[C@H]1c1nc2c(cnn2C2CCCC2)c(=O)[nH]1` (racemic) [Example 156, 1-cyclopentyl-6-[(3,4-trans)-1-(2,5-difluorobenzyl)-4-methylpyrrolidin-3-yl]-1,5-dihydro-4H-pyrazolo[3,4-d]pyrimidin-4-one] the IC50 was 40.8 nM. For `COc1ccc(F)cc1CN1C[C@@H](C)[C@H](c2nc3c(cnn3C3CCCC3)c(=O)[nH]2)C1` (racemic) [Example 128, 1-cyclopentyl-6-[(3,4-trans)-1-(5-fluoro-2-methoxybenzyl)-4-methylpyrrolidin-3-yl]-1,5-dihydro-4H-pyrazolo[3,4-d]pyrimidin-4-one], the IC50 was 70.9 nM. With `C[C@@H]1CN(Cc2c(Cl)cccc2Cl)C[C@H]1c1nc2c(cnn2C2CCCC2)c(=O)[nH]1` (racemic) [Example 192, 1-cyclopentyl-6-[(3,4-trans)-1-(2,6-dichlorobenzyl)-4-methylpyrrolidin-3-yl]-1,5-dihydro-4H-pyrazolo[3,4-d]pyrimidin-4-one] the IC50 was 236 nM. Work on `C[C@@H]1CN(Cc2cccc(F)c2)C[C@H]1c1nc2c(cnn2C2CCCC2)c(=O)[nH]1` (racemic) [Example 215, 1-cyclopentyl-6-[(3,4-trans)-1-(3-fluorobenzyl)-4-methylpyrrolidin-3-yl]-1,5-dihydro-4H-pyrazolo[3,4-d]pyrimidin-4-one] yielded an IC50 of 11.5 nM. Compound `COc1ccc(CN2C[C@@H](C)[C@H](c3nc4c(cnn4C4CCCC4)c(=O)[nH]3)C2)c(OC)c1` (racemic) [Example 206, 1-cyclopentyl-6-[(3,4-trans)-1-(2,4-dimethoxybenzyl)-4-methylpyrrolidin-3-yl]-1,5-dihydro-4H-pyrazolo[3,4-d]pyrimidin-4-one] has an IC50 of 68.4 nM.

— patent US7964607B2, “Pyrazolo[3,4-d]pyrimidine compounds” (Pfizer Inc., priority 2007, dated 2011)
